Results from ChEMBL document CHEMBL5143608, “Peptide-based long-acting co-agonists of GLP-1 and cholecystokinin 1 receptors as novel anti-diabesity agents” (Eur J Med Chem, 2022).
Activity calls are given as the source filed them. No cut-off for these calls is given here. *1 amine or outer side, *2 acyl side, *3 side chain or, on linkers, in order; H or OH if unused. Where a SMILES comes first, the peptide text is derived from it. [ ]: non-standard residue; d: D form. The star is where a group is joined. Phe(4-CH2SO3H) = N[C@@H](Cc1ccc(CS(=O)(=O)O)cc1)C(=O)O; C18 diacid = O=C(O)CCCCCCCCCCCCCCCCC(=O)*; γGlu = O=C(O)[C@H](CCC(=O)[*:2])N[*:1]; NMeF = CN[C@@H](Cc1ccccc1)C(=O)O; dNMeD = CN[C@H](CC(=O)O)C(=O)O; Nle = CCCC[C@H](N)C(=O)O; AEEA = NCCOCCOCC(=O)O

What was measured:
[1] = tested on: Mus musculus; assay: Anti-diabesity activity in DIO C57BL/6 mouse assessed as improvement in insulin sensitivity at 25 nmol/kg, sc administered every 2 days for 10 days by insulin tolerance test; type: functional, organism-based; details: time 10.0 day
[2] = tested on: Mus musculus; assay: Anti-diabesity activity against high fat diet-induced DIO C57BL/6 mouse model assessed as decrease in body weight at 25 nmol/kg, sc administered for 2 weeks; type: functional; details: C57BL/6, 336 h, time 14 day
[3] = tested on: Mus musculus; assay: Anti-diabesity activity against high fat diet-induced DIO C57BL/6 mouse model assessed as reduction in food intake at 25 nmol/kg, sc administered for 2 weeks; type: functional, organism-based; details: time 14.0 day
[4] = tested on: Mus musculus; assay: Anti-diabesity activity against high fat diet-induced DIO C57BL/6 mouse model assessed as reduction in fasted blood glucose level at 25 nmol/kg, sc administered for 2 weeks and measured on day 15 by glucometer analysis; type: functional, organism-based; details: time 15.0 day
[5] = tested on: Mus musculus; assay: Anti-diabesity activity against DIO C57BL/6 mouse assessed as reduction in triglycerides level in serum at 25 nmol/kg, sc administered every 2 days for 3 weeks; type: functional, organism-based; details: time 21.0 day
[6] = tested on: Mus musculus; assay: Anti-diabesity activity against DIO C57BL/6 mouse assessed as decrease in fat mass at 25 nmol/kg, sc administered every 2 days for 3 weeks; type: functional, organism-based; details: time 21.0 day
[7] = tested on: Mus musculus; assay: Anorectic activity in ICR mouse assessed as decrease in food intake at 25 nmol/kg, ip and measured after 24 hrs; type: functional, organism-based
[8] = tested on: Mus musculus; assay: Anti-diabesity activity in DIO C57BL/6 mouse assessed as reduction in body weight at 10 nmol/kg, sc administered every 2 days for 10 days; type: functional; details: C57BL/6, 240 h, time 10 day
[9] = tested on: Mus musculus; assay: Anti-diabesity activity against DIO C57BL/6 mouse assessed as reduction in body weight at 25 nmol/kg, sc administered every 2 days for 3 weeks; type: functional; details: C57BL/6, 504 h, time 21 day
[10] = molecular target: T1, Cholecystokinin receptor type A (Homo sapiens, UniProt P32238); assay: Agonist activity at human CCK1R expressed in HEK293 cells assessed as ERK1/2 phosphorylation incubated for 5 mins by AlphaScreen assay; type: functional, cell-based
T1 sequence (P32238 whole entry): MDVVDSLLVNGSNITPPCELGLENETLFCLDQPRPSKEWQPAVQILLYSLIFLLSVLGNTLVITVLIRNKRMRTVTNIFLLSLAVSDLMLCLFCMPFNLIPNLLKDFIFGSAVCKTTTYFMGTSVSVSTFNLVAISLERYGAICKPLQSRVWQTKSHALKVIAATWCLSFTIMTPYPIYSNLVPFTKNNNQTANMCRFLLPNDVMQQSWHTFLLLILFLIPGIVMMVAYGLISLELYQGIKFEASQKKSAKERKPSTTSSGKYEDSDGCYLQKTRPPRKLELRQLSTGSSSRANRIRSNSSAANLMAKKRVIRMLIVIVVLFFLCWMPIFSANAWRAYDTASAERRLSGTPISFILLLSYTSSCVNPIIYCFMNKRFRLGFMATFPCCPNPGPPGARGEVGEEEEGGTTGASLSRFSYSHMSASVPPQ

[11] = tested on: Mus musculus; assay: Anti-diabesity activity against high fat diet-induced DIO C57BL/6 mouse model assessed as reduction in fat mass accumulation at 25 nmol/kg, sc administered for 2 weeks and measured on day 15 by NMR analysis; type: functional, organism-based; details: time 15.0 day
[12] = tested on: Mus musculus; assay: Hypoglycemic activity in db/db mouse assessed as improvement in glucose tolerance at 25 nmol/kg, ip administered 30 min before oral glucose administration and measured upto 120 mins by OGTT; type: functional, organism-based
[13] = tested on: Mus musculus; assay: Insulinotropic activity in db/db mouse assessed as elevation of plasma insulin level at 25 nmol/kg, ip administered 30 min before oral glucose administration and measured upto 60 mins by ELISA; type: functional, organism-based; details: time <= 90.0 min
[14] = tested on: Mus musculus; assay: Anti-diabesity activity in DIO C57BL/6 mouse assessed as reduction in body weight at 100 nmol/kg, sc administered every 2 days for 10 days; type: functional; details: C57BL/6, 240 h, time 10 day
[15] = tested on: BRIN-BD11; assay: Insulinotropic activity in rat BRIN-BD11 cells assessed as increase in insulin secretion incubated for 20 mins by radioimmunoassay; type: functional, cell-based; details: DDE = dose-dependent effect
[16] = tested on: Mus musculus; assay: Anti-diabesity activity against high fat diet-induced DIO C57BL/6 mouse model assessed as improvement in glucose tolerance level at 25 nmol/kg, sc administered for 2 weeks and measured on day 16 by oral glucose tolerance test; type: functional, organism-based; details: time 16.0 day
[17] = tested on: Mus musculus; assay: Anti-diabesity activity against DIO C57BL/6 mouse assessed as reduction in cumulative food intake at 25 nmol/kg, sc administered every 2 days for 3 weeks; type: functional, organism-based; details: time 21.0 day
[18] = tested on: Mus musculus; assay: Anti-diabesity activity in DIO C57BL/6 mouse assessed as reduction in body weight at 25 nmol/kg, sc administered every 2 days for 10 days; type: functional; details: C57BL/6, 240 h, time 10 day
[19] = molecular target: T2, Gastrin/cholecystokinin type B receptor (Homo sapiens, UniProt P32239); assay: Agonist activity at human CCK2R expressed in HEK293 cells assessed as ERK1/2 phosphorylation incubated for 5 mins by AlphaScreen assay; type: functional, cell-based
T2 sequence (P32239 whole entry): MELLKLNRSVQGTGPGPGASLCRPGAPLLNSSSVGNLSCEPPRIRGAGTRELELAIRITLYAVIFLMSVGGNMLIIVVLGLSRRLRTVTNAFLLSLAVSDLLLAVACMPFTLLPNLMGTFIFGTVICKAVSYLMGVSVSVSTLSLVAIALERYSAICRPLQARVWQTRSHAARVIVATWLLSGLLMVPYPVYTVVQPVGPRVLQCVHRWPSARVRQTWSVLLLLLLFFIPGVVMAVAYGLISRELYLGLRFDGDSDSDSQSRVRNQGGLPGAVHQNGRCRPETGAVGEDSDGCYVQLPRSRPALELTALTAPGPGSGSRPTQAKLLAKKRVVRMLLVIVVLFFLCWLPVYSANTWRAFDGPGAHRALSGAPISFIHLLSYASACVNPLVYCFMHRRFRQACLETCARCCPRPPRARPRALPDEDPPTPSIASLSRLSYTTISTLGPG

[20] = tested on: Mus musculus; assay: Anti-diabesity activity against DIO C57BL/6 mouse assessed as reduction in cholesterol level in serum at 25 nmol/kg, sc administered every 2 days for 3 weeks; type: functional, organism-based; details: time 21.0 day
[21] = tested on: Mus musculus; assay: Anti-diabesity activity against DIO C57BL/6 mouse assessed as improvement in glucose tolerance at 25 nmol/kg, sc administered every 2 days for 3 weeks by OGTT; type: functional, organism-based; details: time 21.0 day
[22] = tested on: Mus musculus; assay: Hypoglycemic activity in db/db mouse assessed as reduction in glucose excursion at 25 nmol/kg, ip administered 30 min before oral glucose administration and measured upto 120 mins by OGTT; type: functional, organism-based
[23] = tested on: Mus musculus; assay: Anti-diabesity activity against DIO C57BL/6 mouse assessed as reduction in fasted blood glucose level at 25 nmol/kg, sc administered every 2 days for 3 weeks; type: functional, organism-based; details: time 21.0 day

EC50 [10]: 210 pM
SMILES: CCCC[C@H](NC(=O)[C@H](Cc1ccc(CS(=O)(=O)O)cc1)NC(=O)[C@H](CC(=O)O)NC(=O)COCCOCCNC(=O)COCCOCCNC(=O)CC[C@H](NC(=O)CCCCCCCCCCCCCCCCC(=O)O)C(=O)O)C(=O)NCC(=O)N[C@@H](Cc1c[nH]c2ccccc12)C(=O)N[C@@H](CCCC)C(=O)N(C)[C@H](CC(=O)O)C(=O)N(C)[C@@H](Cc1ccccc1)C(N)=O ({C18 diacid-γGlu-AEEA-AEEA}-D[Phe(4-CH2SO3H)][Nle]GW[Nle][dNMeD][NMeF]-NH2)
Activity [1]: Active | inhibition in vivo at 0.025 µmol/kg [2]: 7.1% | Activity [3]: Active | Activity [4]: Active | Activity [5]: Active | Activity [6]: Active | Activity [7]: Active | inhibition in vivo at 0.01 µmol/kg [8]: 3.9% | inhibition in vivo at 0.025 µmol/kg [9]: 9.8% | Activity [11]: Active | Activity [12]: Active | Activity [13]: Active | inhibition in vivo at 0.1 µmol/kg [14]: 10% | Activity [15]: Dde | Activity [16]: Active | Activity [17]: Active | inhibition in vivo at 0.025 µmol/kg [18]: 6.1% | EC50 [19]: > 100000 pM | Activity [20]: Active | Activity [21]: Active | Activity [22]: Active | Activity [23]: Active
